# Data reported in US12558343B2, “Medical use of icaritin” (Lunan Pharmaceutical Group Corporation, priority 2020, dated 2026).
# Like-named read-outs stand apart in the source and are kept apart here.
# Tests used:
# [1] = tested on: hemorrhagic transformation model induced by clopidogrel combined with cerebral ischemia-reperfusion; experiment: Hemorrhagic transformation after cerebral ischemia-reperfusion (MCAO) caused by clopidogrel, bleeding rate; type: in vivo, ICR mice; conditions: for Number of animals with cerebral hemorrhage: 24 h after MCAO; for Bleeding rate %: model group 80.0
# Procedure: 5-week-old ICR male mice were fed to 6-week-old and divided into a control group, a model group, an icaritin-3 mg/kg group, an icaritin-6 mg/kg group, an icaritin-12 mg/kg group, and an icariin-12 mg/kg group according to body weight. From day 1 to day 3 after the grouping, the mice in each icaritin group were separately intragastrically administrated with 3, 6, and 12 mg/kg of icaritin and the mice in the icariin group was intragastrically administrated with 12 mg/kg of icariin once a day, and the mice in other groups were intragastrically administrated with a corresponding vehicle; and except the control group, the mice in other groups were intragastrically administrated with aspirin (100 mg/kg) or clopidogrel (15 mg/kg) once a day at a volume of 10 mL/kg.
# On day 3, 10 min after the administration, the mice were anesthetized by intraperitoneal injection of 70 mg/kg of pentobarbital sodium and subjected to a cerebral ischemia-reperfusion (middle cerebral artery occlusion, MCAO) surgery with ischemia for 1 h and reperfusion for 23 h.
# 24 h after the surgery was an end point of the experiment.
# Bleeding rate: the mice were anesthetized by intraperitoneal injection of 70 mg/kg of pentobarbital sodium, a brain tissue was taken out, cerebral hemorrhage was recorded and a bleeding rate of the mice in each group was calculated. Cerebral hemorrhage rate %=number of animals with cerebral hemorrhage/number of surviving animals in each group×100.
# [2] = tested on: activated partial thromboplastin time; experiment: Activated partial thromboplastin time, rabbit model of acquired hemophilia A; type: in vivo, New Zealand rabbits
# Procedure: Twenty-four healthy New Zealand rabbits were selected and randomly divided into a control group, a model group and a treatment group with 8 rabbits in each group. Each rabbit weighed about 1.5 kg. The rabbits were fed in separate stainless steel cages at a room temperature of 18-25° C. The rabbits in each group were given a normal diet without any special treatment. One week later, the rabbit was anesthetized with 2% pentobarbital (1.5 ml/kg) via the marginal ear vein, and the left femoral vein of the rabbit was isolated and exposed for injection. The plasma of patients with acquired hemophilia A (confirmed by the Department of Hematology, Linyi People's Hospital) was intravenously injected into the rabbits in the model group and the treatment group at 2 ml/kg of rabbit body weight. The rabbits in the treatment group were immediately intragastrically administrated with icaritin at 18 mg/kg after the injection was completed and the rabbits in the model group were intragastrically administrated with a same amount of normal saline. The rabbits in the control group were intravenously injected with a same amount of normal human plasma. Blood was drawn from the marginal ear vein 30 min before and 30 min, 60 min, 90 min, and 120 min after the injection of the plasma separately, 3.8% of sodium citrate (1:9) was added for anticoagulation, and the anticoagulated blood was centrifuged at 3,000 r/m to separate plasma.
# Referring to the instructions of the kit, 0.1 mL of rabbit plasma was taken, 0.1 mL of a thromboplastin time reagent was added, the materials were mixed, an obtained mixture was subjected to warm bath at 37° C. for 2 min, 0.1 mL of 0.025 M calcium chloride pre-warmed at 37° C. was added, the materials were uniformly mixed, a value of thromboplastin time at each time point was measured by immediately starting a stopwatch, the thromboplastin time at each time point was repeatedly detected twice, and an average value was obtained.
# [3] = mouse, in vivo
# Procedure: (§1) After the grouping, the mice in the normal group and the model group were intragastrically administrated with 10 ml/kg of an icaritin solvent which was prepared by adding 12 g of hypromellose E5 and 0.1 g of sodium lauryl sulfate into 1 L of water. […] One hour after the last pre-administration, the mice in the model group and each administration group were injected with 150 U/kg of a heparin sodium injection through a tail vein to establish a model, and the mice in the normal group were injected with 10 ml/kg of a sodium chloride injection through a tail vein.
# (§2) After the bleeding time was detected, the mice were anesthetized with sodium pentobarbital, blood was collected from an abdominal cardinal vein, and indicators of blood routine examination and four coagulation indicators (prothrombin time, thromboplastin time, thrombin time, and fibrinogen) were detected.
# [4] = tested on: prolonged bleeding time caused by heparin sodium; experiment: Tail-cut bleeding time in mice, prolonged by heparin sodium; type: in vivo, ICR mice; conditions: heparin sodium 150 U/kg i.v.
# Source text: 72 ICR mice aged 5-6 weeks, weighing 19-21 g, and half male and half female were selected. The mice were quarantined for 7 days after entering a laboratory and healthy mice were selected as test animals. The mice were weighed on first and last days of quarantine. According to the body weight on the last day of the quarantine, the male and female animals were divided into six groups by a simplified random method, namely, a normal group (C), a model group (V), low-, medium- and high-dose icaritin groups (2, 6, and 18 mg/kg, L, M, H) and a positive control drug group (200 mg/kg of etamsylate, P).
# After 15 min of the modeling, the tails of the mice were cut and bleeding time of each mouse was measured.
# [5] = mouse, in vivo; remark: listed apart in the source
# Procedure: as §1, §2
smiles,measurement,setting,value
COc1ccc(-c2oc3c(CC=C(C)C)c(O)cc(O)c3c(=O)c2O)cc1 [Icaritin],Number of animals with cerebral hemorrhage,"[1]; 3 mg/kg i.g. Day 1-3 with clopidogrel 15 mg/kg, of 7 animals",3
same,Bleeding rate %,[1]; 3 mg/kg i.g. Day 1-3 with clopidogrel 15 mg/kg,42.9%
same,Number of animals with cerebral hemorrhage,"[1]; 6 mg/kg i.g. Day 1-3 with clopidogrel 15 mg/kg, of 8 animals",2
same,Bleeding rate %,[1]; 6 mg/kg i.g. Day 1-3 with clopidogrel 15 mg/kg,25.0%
same,Number of animals with cerebral hemorrhage,"[1]; 12 mg/kg i.g. Day 1-3 with clopidogrel 15 mg/kg, of 8 (icaritin) or 7 (icariin) animals",2
same,Bleeding rate %,[1]; 12 mg/kg i.g. Day 1-3 with clopidogrel 15 mg/kg,25.0%
same,Thromboplastin time,"[2]; icaritin 18 mg/kg i.g. after plasma injection, 30 min after injection",40.4 ± 3.23^$
same,Thromboplastin time,"[2]; icaritin 18 mg/kg i.g., 60 min after injection",39.9 ± 4.09$ $
same,Thromboplastin time,"[2]; icaritin 18 mg/kg i.g., 90 min after injection",40.4 ± 5.67$ $
same,Thromboplastin time,"[2]; icaritin 18 mg/kg i.g., 120 min after injection",41.3 ± 6.21^$ $
same,Thromboplastin time,"[2]; treatment group, 30 min before injection of patient plasma (before icaritin)",36.8 ± 4.12
same,Fibrinogen,[3]; 2 mg/kg,1.83 ± 0.22 g/L
same,Prothrombin time,[3]; 2 mg/kg,10.12 ± 1.34 s
same,Thrombin time,[3]; 2 mg/kg,22.23 ± 2.01 s
same,Thromboplastin time,[3]; 2 mg/kg,25.19 ± 1.90 s
same,Fibrinogen,[3]; 6 mg/kg,1.82 ± 0.56 g/L
same,Prothrombin time,[3]; 6 mg/kg,11.23 ± 1.45 s
same,Thrombin time,[3]; 6 mg/kg,24.09 ± 1.99 s
same,Thromboplastin time,[3]; 6 mg/kg,25.09 ± 2.22 s
same,Fibrinogen,[3]; 18 mg/kg,2.01 ± 0.52 g/L
same,Prothrombin time,[3]; 18 mg/kg,9.98 ± 1.23 s
same,Thrombin time,[3]; 18 mg/kg,25.54 ± 1.78 s
same,Thromboplastin time,[3]; 18 mg/kg,24.55 ± 2.66 s
same,Bleeding time,"[4]; group H, 18 mg/kg i.g. once a day 5 days",15.9 ± 6.6^$ $ & min
same,Bleeding time,"[4]; group L, 2 mg/kg i.g. once a day 5 days, tail cut 15 min after modeling",26.4 ± 8.8^$ min
same,Bleeding time,"[4]; group M, 6 mg/kg i.g. once a day 5 days",22.7 ± 9.1^$ min
same,Number of erythrocytes,[5]; 2 mg/kg,7.109 ± 0.656 10^12/L
same,Number of leukocytes,[5]; 2 mg/kg,1.895 ± 0.207 10^9/L
same,Number of platelets,[5]; 2 mg/kg,1046 ± 136 10^9/L
same,Number of erythrocytes,[5]; 6 mg/kg,7.111 ± 0.634 10^12/L
same,Number of leukocytes,[5]; 6 mg/kg,1.934 ± 0.199 10^9/L
same,Number of platelets,[5]; 6 mg/kg,1110 ± 128 10^9/L
same,Number of erythrocytes,[5]; 18 mg/kg,7.090 ± 0.761 10^12/L
same,Number of leukocytes,[5]; 18 mg/kg,1.888 ± 0.223 10^9/L
same,Number of platelets,[5]; 18 mg/kg,1059 ± 170 10^9/L
